According to ChEMBL document CHEMBL1201862, “PubChem BioAssay data set” (2004):
Calls of active or inactive are those of the source.

What was measured:
Cytochrome P450 2D6 = Cytochrome P450 2D6 (Homo sapiens, UniProt P10635); assay: qHTS Assay for Inhibitors and Substrates of Cytochrome P450 2D6. [Related pubchem assays: 410 ]; format: ADME; settings: read-out: Potency
[1] = target: T1, Alkaline phosphatase, tissue-nonspecific isozyme (Homo sapiens, UniProt P05186)
T1 sequence (P05186 whole entry): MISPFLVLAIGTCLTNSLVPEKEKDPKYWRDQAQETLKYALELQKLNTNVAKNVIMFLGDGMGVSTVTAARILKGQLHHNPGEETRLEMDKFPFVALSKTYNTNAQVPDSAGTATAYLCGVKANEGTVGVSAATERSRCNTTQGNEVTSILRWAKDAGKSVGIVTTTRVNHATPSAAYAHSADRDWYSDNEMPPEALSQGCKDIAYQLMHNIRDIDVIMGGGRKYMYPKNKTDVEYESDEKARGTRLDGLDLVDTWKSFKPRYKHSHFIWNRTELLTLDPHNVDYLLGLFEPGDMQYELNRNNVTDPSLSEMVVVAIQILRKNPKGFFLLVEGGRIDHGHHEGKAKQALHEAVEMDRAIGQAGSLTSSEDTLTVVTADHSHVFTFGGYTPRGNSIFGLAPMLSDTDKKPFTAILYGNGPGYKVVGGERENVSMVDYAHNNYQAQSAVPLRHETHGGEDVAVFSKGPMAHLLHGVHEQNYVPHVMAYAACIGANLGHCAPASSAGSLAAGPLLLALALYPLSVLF

[2] = CCR5-tropic HIV-1 fusion blockers – cell-based, CCR5-tropic Env, dose response (AID 2279); format: functional
[3] = target: T2, High affinity choline transporter 1 (Homo sapiens, UniProt Q9GZV3); assay: human choline transporter blockers, potency – cell-based, 10-point CRC, membrane potential dye, dose response (AID 588401); format: functional;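 further: membrane potential dye fluorescence of choline-evoked depolarization via CHT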
T2 sequence (Q9GZV3 whole entry): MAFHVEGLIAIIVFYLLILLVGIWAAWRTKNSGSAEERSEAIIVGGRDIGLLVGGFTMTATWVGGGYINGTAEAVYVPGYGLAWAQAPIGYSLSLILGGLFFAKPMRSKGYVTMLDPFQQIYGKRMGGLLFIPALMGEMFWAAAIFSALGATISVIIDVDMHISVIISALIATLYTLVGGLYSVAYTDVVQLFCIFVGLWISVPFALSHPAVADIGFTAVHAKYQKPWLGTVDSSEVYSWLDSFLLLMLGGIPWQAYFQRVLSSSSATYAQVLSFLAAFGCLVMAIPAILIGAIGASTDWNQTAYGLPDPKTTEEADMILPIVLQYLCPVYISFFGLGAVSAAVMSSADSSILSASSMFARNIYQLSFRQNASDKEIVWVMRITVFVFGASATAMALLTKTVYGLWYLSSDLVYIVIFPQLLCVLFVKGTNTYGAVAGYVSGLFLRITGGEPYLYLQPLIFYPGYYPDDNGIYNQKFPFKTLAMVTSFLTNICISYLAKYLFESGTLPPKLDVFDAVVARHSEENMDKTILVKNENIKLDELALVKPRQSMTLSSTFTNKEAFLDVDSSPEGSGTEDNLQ

[4] = target: T2, High affinity choline transporter 1; assay: human choline transporter blockers, potency – cell-based, 5-point CRC, membrane potential dye, dose response (AID 504840); format: functional
[5] = target: T3, Polyadenylate-binding protein 1 (Homo sapiens, UniProt P11940); assay: MLLE domain peptide-binding blockers, IC50 – biochemical, fluorescence polarization, FITC-PAM2 peptide, dose response (AID 602259); format: functional; settings: read-out: IC50_Mean
T3 sequence (P11940 whole entry, the tested form may be a part): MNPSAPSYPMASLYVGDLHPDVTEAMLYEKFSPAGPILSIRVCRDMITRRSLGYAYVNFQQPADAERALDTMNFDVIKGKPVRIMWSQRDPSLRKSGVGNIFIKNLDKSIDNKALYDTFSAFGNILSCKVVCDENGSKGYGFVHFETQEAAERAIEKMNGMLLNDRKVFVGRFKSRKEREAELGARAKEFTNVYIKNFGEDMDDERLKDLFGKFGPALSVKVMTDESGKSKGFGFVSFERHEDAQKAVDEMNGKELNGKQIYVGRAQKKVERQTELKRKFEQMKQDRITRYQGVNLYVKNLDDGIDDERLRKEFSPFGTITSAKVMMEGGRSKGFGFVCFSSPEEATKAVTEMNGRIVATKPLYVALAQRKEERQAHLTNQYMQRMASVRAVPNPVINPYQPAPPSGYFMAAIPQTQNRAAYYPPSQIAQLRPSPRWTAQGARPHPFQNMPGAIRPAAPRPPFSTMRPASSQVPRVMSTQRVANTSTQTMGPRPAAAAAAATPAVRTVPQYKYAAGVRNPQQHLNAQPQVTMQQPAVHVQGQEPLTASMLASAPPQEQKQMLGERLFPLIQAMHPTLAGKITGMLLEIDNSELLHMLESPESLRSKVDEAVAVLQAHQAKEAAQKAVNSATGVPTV

[6] = target: C-C chemokine receptor type 6 (Homo sapiens, UniProt P51684); assay: antagonism of CCR6 beta-arrestin recruitment – cell-based, luminescent beta-arrestin readout, dose response (AID 504728); format: functional
[7] = target: T3, Polyadenylate-binding protein 1; assay: MLLE binding blockers, Cy5 peptide tracer – biochemical, fluorescence polarization, Cy5-PAM2 peptide, secondary, miRNA deadenylation inhibitor project, dose response (AID 602260); format: functional; settings: read-out: IC50_Mean
Beta-galactosidase = Beta-galactosidase (Escherichia coli, UniProt Q8VNN2); assay: detection-enzyme interference by beta-gal modulators – biochemical, E. coli enzyme, set 3, artefact control for CCR6 antagonist project, dose response (AID 504712); format: functional
[8] = A Cell Based Assay for the Identification of Probe candidate Compounds with Anti- Venezuelan Equine Encephalitis virus. [Related pubchem assays: 2409, 2419, 1621, 2238, 2405, 2024, 2065, 2402, 2414, 1635, 1650, 2244 ]; format: functional
[9] = A Cell Based Secondary Assay To Explore Cytotoxicity of Compounds that Sensitize Mycobacterium Tuberculosis to Beta-Lactam Antibiotics.; format: functional
[10] = target: Melanin-concentrating hormone receptor 1 (Homo sapiens, UniProt Q99705); assay: Late-stage fluorescence-based counterscreen for antagonists of the G-protein coupled receptor 7 (GPR7): cell-based dose response assay to identify antagonists of the melanin-concentrating hormone receptor 1 (MCHR1). [Related pubchem assays (depositor defined):AID1861, AID1880, AID1952, AID2148, AID2251, AID2257, AID485339]; format: functional;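 further: stimulated with 30 nM MCH peptide agonist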
Melanin-concentrating hormone receptor 1, sequence (Q99705 whole entry): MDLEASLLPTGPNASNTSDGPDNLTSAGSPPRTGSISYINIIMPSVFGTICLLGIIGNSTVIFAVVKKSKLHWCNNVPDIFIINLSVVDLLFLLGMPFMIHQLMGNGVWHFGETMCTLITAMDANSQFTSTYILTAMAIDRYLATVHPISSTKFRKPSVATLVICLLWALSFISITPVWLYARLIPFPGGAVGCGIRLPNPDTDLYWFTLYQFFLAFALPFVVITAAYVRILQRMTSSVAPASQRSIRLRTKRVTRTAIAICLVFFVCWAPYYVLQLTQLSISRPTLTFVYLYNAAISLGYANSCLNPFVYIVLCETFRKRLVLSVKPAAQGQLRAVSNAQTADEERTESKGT

[11] = tested on: Streptococcus sp. 'group A'; assay: Streptococcus pyogenes SK(-)GAS viability under kanamycin – luminescence, BacTiterGlo, confirmation, counter-screen for streptokinase expression inhibitor project, dose response (AID 1900); format: functional, organism-based
[12] = target: Induced myeloid leukemia cell differentiation protein Mcl-1 (Homo sapiens, UniProt Q07820); format: functional
Streptococcus = assay: GAS UMAA2166 growth inhibition – luminescence, BacTiterGlo, counter-screen for streptokinase expression inhibitor project, dose response (AID 1915); format: functional, organism-based;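 further: potency for reduction of bacterial viability or growth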
[13] = target: T4, Voltage-gated N-type calcium channel alpha-1B subunit/Amyloid beta A4 precursor protein-binding family A member 1 (Homo sapiens, UniProt Q00975+Q02410); format: protein assay
T4 sequence (Q00975 whole entry): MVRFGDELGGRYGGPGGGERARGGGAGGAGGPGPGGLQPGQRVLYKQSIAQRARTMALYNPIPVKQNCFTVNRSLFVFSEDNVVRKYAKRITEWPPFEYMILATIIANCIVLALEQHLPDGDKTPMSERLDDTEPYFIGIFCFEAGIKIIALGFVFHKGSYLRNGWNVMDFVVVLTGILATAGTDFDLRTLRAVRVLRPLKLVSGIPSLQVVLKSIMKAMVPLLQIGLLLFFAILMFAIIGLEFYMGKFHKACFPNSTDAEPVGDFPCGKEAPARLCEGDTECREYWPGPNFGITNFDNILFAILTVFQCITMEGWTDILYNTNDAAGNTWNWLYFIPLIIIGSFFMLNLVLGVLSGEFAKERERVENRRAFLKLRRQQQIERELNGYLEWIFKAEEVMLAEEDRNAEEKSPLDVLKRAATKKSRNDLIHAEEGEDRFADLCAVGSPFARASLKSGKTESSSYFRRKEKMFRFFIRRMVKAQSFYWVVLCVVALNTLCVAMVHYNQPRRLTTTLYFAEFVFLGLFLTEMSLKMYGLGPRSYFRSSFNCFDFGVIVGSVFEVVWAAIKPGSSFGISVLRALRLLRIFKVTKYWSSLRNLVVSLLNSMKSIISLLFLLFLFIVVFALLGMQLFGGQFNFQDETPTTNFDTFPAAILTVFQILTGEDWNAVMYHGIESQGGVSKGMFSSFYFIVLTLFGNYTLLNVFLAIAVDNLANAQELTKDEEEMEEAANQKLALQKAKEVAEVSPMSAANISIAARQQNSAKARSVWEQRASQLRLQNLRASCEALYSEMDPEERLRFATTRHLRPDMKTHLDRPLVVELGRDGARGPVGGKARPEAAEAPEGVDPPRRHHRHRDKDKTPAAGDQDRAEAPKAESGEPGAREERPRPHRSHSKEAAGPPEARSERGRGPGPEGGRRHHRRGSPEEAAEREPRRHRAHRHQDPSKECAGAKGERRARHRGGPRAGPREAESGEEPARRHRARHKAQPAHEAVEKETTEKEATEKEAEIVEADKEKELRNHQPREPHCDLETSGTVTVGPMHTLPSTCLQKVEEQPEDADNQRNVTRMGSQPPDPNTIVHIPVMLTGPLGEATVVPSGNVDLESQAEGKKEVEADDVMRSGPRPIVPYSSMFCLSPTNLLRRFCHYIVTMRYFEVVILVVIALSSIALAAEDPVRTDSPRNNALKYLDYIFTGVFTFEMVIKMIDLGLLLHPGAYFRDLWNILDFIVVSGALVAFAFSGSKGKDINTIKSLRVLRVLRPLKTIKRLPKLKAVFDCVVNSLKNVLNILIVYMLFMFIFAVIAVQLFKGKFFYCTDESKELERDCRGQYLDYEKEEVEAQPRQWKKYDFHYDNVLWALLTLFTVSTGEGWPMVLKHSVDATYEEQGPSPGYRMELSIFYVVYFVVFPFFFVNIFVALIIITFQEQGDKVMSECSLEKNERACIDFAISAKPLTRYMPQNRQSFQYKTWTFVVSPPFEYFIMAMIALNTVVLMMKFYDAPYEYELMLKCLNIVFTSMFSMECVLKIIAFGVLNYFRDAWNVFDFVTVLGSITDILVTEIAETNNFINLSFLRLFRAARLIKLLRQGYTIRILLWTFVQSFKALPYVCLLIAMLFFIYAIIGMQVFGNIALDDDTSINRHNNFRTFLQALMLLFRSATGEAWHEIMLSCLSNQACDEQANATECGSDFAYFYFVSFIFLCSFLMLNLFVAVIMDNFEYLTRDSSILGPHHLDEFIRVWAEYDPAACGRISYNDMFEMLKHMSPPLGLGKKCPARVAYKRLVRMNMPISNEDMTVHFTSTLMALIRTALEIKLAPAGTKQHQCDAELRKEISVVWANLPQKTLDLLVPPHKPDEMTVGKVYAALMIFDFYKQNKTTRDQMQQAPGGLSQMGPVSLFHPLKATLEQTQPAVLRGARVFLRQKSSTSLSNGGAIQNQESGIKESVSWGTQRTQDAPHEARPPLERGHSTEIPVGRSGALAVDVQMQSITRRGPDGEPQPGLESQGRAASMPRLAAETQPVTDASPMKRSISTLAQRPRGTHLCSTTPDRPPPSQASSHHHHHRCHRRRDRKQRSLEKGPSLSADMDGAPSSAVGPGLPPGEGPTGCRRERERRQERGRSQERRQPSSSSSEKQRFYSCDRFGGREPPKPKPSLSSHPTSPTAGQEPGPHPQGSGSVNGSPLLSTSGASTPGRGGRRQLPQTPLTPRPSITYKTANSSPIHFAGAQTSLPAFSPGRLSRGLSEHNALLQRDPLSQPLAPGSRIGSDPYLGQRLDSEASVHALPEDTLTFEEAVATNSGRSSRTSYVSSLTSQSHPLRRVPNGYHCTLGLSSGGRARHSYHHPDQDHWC
T4 sequence (Q02410 whole entry): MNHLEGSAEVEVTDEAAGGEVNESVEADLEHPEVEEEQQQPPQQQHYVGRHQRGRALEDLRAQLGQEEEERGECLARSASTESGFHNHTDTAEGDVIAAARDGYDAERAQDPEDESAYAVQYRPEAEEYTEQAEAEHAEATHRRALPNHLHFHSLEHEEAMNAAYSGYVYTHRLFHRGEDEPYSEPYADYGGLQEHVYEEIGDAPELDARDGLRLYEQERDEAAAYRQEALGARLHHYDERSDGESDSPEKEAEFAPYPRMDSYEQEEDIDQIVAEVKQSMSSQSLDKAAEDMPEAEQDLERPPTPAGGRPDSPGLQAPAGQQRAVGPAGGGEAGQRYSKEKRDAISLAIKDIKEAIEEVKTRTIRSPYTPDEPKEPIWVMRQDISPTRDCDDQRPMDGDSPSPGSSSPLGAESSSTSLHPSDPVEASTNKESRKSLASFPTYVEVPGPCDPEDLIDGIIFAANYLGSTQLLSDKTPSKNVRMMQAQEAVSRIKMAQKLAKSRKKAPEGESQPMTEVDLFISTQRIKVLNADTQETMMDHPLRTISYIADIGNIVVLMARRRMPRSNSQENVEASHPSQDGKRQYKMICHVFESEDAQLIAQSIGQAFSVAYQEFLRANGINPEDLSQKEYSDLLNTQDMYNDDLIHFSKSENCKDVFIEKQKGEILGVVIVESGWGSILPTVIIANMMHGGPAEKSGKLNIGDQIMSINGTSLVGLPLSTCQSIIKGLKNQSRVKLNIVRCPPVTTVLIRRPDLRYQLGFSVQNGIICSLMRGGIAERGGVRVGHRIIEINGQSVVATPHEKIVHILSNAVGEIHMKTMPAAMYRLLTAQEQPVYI

[14] = target: T4, Voltage-gated N-type calcium channel alpha-1B subunit/Amyloid beta A4 precursor protein-binding family A member 1; format: protein assay; remark: listed apart in the source
Streptokinase A = target: T5, Streptokinase A (Streptococcus pyogenes serotype M1, UniProt P10520); assay: viability-normalized secreted streptokinase activity reduction – plasminogen activation absorbance, OD405, dose response (AID 1914); format: functional, Streptococcus pyogenes M1 GAS;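 further: secreted streptokinase activity via plasminogen activation per viability signal from cell pellet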
T5 sequence (P10520 whole entry): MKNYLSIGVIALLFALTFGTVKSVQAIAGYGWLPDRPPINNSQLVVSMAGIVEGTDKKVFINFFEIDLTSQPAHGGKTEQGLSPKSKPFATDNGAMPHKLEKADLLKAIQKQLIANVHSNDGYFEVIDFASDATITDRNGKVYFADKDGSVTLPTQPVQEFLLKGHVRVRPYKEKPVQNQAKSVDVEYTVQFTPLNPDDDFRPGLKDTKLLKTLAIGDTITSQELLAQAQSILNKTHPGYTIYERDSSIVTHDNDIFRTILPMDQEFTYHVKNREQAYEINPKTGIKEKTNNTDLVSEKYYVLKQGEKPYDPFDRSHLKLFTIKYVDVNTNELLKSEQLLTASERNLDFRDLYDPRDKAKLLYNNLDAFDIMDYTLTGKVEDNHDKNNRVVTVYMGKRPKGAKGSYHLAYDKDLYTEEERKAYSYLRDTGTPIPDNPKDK

[15] = target: Glyceraldehyde-3-phosphate dehydrogenase (Homo sapiens, UniProt P04406)
Glyceraldehyde-3-phosphate dehydrogenase, sequence (P04406 whole entry): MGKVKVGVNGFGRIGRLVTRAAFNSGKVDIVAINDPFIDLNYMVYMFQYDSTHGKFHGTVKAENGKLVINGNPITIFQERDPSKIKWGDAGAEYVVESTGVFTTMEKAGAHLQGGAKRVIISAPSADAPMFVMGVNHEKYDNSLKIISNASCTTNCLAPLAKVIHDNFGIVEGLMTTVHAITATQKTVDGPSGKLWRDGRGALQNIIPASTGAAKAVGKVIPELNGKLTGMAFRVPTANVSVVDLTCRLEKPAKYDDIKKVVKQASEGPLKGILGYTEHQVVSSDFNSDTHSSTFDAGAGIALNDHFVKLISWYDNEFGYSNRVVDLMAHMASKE

Cytochrome P450 2D6, sequence (P10635 whole entry): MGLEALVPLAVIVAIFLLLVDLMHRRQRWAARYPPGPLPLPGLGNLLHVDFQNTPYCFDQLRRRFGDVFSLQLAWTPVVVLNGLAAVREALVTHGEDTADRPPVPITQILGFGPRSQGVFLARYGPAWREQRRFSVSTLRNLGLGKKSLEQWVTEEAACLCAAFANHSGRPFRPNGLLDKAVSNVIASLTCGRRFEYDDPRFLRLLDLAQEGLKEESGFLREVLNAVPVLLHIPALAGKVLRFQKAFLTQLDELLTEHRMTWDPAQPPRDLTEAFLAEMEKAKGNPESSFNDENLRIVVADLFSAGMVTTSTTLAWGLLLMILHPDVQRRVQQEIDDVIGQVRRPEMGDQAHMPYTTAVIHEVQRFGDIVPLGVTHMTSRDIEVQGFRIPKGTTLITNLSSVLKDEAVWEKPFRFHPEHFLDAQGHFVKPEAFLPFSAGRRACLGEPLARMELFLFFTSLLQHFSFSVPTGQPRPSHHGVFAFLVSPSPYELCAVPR

## CN1CCc2cc3c(cc2[C@@H]1[C@H]1OC(=O)c2c1ccc1c2OCO1)OCO3
Cytochrome P450 2D6
  AC50: 10 µM (inconclusive)

## COc1ccc(-n2c(=O)c3ccccc3n(CC(=O)NC3CCCCC3)c2=O)cc1OC
[1]
  EC50: > 100 µM (not active)

## O=c1cccc2n1C[C@@H]1C[C@H]2CN2CCCC[C@H]12
Cytochrome P450 2D6
  AC50: 25.1 µM (inconclusive)

## OCCN(CCO)Cc1nc(O)c2c(n1)-c1ccccc1CC21CCCCC1
[1]
  EC50: 76.4 µM (not active)

## CS(=O)(=O)C1=NSC2=NC(=O)/C(=C\c3ccc(OS(=O)(=O)c4ccccc4)cc3)C(=N)N21
[2]
  IC50: 39.3 µM (active)
[3]
  IC50: 5.01 µM (active)
[4]
  IC50: 4.17 µM (active)

## CCCCC(=O)NC(=S)Nc1ccccc1C(=O)Nc1ccccc1
[5]
  IC50: > 66 µM (inactive)
[6]
  IC50: > 66.6 µM (inactive)
[7]
  IC50: > 66 µM (inactive)
Beta-galactosidase
  IC50: > 66.6 µM (inactive)

## COc1ccc(NC(=O)CSc2nc3ccccc3c(=O)n2-c2ccc(F)cc2)cc1
[8]
  IC50: > 66.6 µM (active)

## COc1ccc(S(=O)(=O)N(C(=O)c2ccncc2)c2ccc3oc4c(c3c2)CCCC4)cc1
[9]
  CC50: > 40 µM (active)

## CCN1C(=O)C(=CNNC(=O)c2ccccc2)C(=O)N(CC)C1=S
[9]
  CC50: > 40 µM (active)

## COc1ccc(Oc2c(Cl)cnn(-c3cccc(Cl)c3)c2=O)cc1
[10]
  IC50: 10.5 µM (inactive)

## COc1ccc(Oc2c(Cl)cnn(-c3cccc(C)c3)c2=O)cc1
[10]
  IC50: 5.4 µM (active)

## COc1ccc(/N=C2\S/C(=C\c3ccc(OC(C)C(=O)O)c(OC)c3)C(=O)N2CCc2c[nH]c3ccccc23)cc1 (stereo not given)
[11]
  EC50: 1.86 µM (active)
[12]
  IC50: 7.55 µM (active)
Streptococcus
  EC50: 4.41 µM (active)
[13]
  IC50: > 50 µM (inactive)
[2]
  IC50: > 50 µM (active)
[14]
  IC50: 15.8 µM (active)
Streptokinase A
  EC50: > 50 µM (not active)

## COCCNC(=O)c1cc(-c2ccc(Cl)cc2Cl)n[nH]1
[15]
  IC50: > 10 µM (inconclusive)

## CCOc1cc(C)c(Cl)cc1S(=O)(=O)Nc1cccnc1
[15]
  IC50: > 100 µM (not active)
